Test results reported in US20010012846A1, “Quinoline-4-carboxamide derivatives as NK-2 and NK-3 receptor antagonists” (priority 1997, published 2001).
“And” between values parts separate entries of the source, which are not always exact repeats. Identical values can stand only once. Counter-ions that a name gives are not always drawn.

Columns and labels:
[1] = target: T1, human neurokinin-3 receptor (Homo sapiens, UniProt P29371); assay: Binding affinity to human NK-3 receptor expressed in CHO cells (inhibition of [125I]-[Me-Phe7]-NKB or [3H]-Senktide binding); settings: human neurokinin-3 receptor expressed in CHO cell lines; read-out: Binding affinity, Ki (nM) hNK-3-CHO
T1 construct: expressed in transfected cells; host or cells: CHO
T1 sequence (P29371 1-465): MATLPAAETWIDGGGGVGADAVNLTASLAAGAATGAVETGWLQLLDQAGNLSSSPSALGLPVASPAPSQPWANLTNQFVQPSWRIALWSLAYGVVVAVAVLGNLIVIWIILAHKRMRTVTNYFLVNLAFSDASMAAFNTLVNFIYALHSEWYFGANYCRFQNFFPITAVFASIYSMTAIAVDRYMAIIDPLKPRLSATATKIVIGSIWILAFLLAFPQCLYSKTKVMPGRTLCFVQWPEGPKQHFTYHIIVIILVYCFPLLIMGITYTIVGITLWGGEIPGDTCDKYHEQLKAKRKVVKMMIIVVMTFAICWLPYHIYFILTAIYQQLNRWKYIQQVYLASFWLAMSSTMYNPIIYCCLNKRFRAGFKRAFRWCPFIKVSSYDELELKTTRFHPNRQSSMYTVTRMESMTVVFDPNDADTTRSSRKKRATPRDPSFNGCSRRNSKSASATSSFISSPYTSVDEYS
Protocol: The activity of the compounds of the present invention, as NK3 ligands, is determined by their ability to inhibit the binding of the radiolabelled NK3 ligands, [^125I]-[Me-Phe^7]-NKB or [^3H]-Senktide, to guinea-pig and human NK3 receptors (Renzetti et al, 1991, Neuropeptide, 18, 104-114; Buell et al, 1992, FEBS, 299(1), 90-95; Chung et al, 1994, Biochem. Biophys. Res. Commun., 198(3), 967-972).
The binding assays utilized allow the determination of the concentration of the individual compound required to reduce by 50% the [^125I]-[Me-Phe^7]-NKB and [^3H]-Senktide specific binding to NK3 receptor in equilibrium conditions (IC50).
Binding assays provide for each compound tested a mean IC50 value of 2-5 separate experiments performed in duplicate or triplicate. […] The NK3-antagonist activity of the compounds of the present invention is determined by their ability to inhibit senktide-induced contraction of the guinea-pig ileum (Maggi et al, 1990, Br. J. Pharmacol., 101, 996-1000) and rabbit isolated iris sphincter muscle (Hall et al., 1991, Eur. J. Pharmacol., 199, 9-14) and human NK3 receptors-mediated Ca^++ mobilization (Mochizuki et al, 1994, J. Biol. Chem., 269, 9651-9658). Guinea-pig and rabbit in-vitro functional assays provide for each compound tested a mean KB value of 3-8 separate experiments, where KB is the concentration of the individual compound required to produce a 2-fold rightward shift in the concentration-response curve of senktide. Human receptor functional assay allows the determination of the concentration of the individual compound required to reduce by 50% (IC50 values) the Ca^++ mobilization induced by the agonist NKB. In this assay, the compounds of the present invention behave as antagonists.

[2] = target: T2, human neurokinin-2 receptor (Homo sapiens, UniProt P21452); assay: Binding affinity to human NK-2 receptor expressed in CHO cells (inhibition of [125I]-NKA or [3H]-NKA binding); settings: human neurokinin-2 receptor expressed in CHO cell lines; read-out: Binding affinity, Ki (nM) hNK-2-CHO
T2 construct: expressed in transfected cells; host or cells: CHO
T2 sequence (P21452 1-398): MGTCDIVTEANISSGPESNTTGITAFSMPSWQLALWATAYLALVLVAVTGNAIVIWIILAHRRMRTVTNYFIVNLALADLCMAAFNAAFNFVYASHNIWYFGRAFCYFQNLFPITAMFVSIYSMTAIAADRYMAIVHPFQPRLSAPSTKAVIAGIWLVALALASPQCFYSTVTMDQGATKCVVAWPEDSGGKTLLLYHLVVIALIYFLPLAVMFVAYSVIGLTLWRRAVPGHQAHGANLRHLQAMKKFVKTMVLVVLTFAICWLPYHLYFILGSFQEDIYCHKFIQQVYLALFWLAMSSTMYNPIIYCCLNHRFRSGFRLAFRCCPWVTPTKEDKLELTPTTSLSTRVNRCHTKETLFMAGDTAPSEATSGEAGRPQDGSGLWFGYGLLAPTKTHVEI
Protocol: The activity of the compounds of the present invention, as NK-2 ligands, is determined by their ability to inhibit the binding of the radiolabelled NK-2 ligands, [^125I]-NKA or [^3H]-NKA, to human NK-2 receptors (Aharony et al, 1992, Neuropeptide, 23, 121-130).
The binding assays utilized allow the determination of the concentration of the individual compound required to reduce by 50% the [^125I]-NKA and [^3H]-NKA specific binding to NK2 receptor in equilibrium conditions (IC50).
Binding assays provide for each compound tested a mean IC50 value of 2-5 separate experiments performed in duplicate or triplicate. […] The NK-2-antagonist activity of the compounds of the present invention is determined by their ability to inhibit human NK-2 receptor-mediated Ca^++ mobilization (Mochizuki et al, 1994, J. Biol. Chem., 269, 9651-9658). Human receptor functional assay allows the determination of the concentration of the individual compound required to reduce by 50% (IC50 values) the Ca^++ mobilization induced by the agonist NKA. In this assay, the compounds of the present invention behave as antagonists.

Row | Ki [1] [nM] | Ki [2] [nM] | melting point | SMILES
1 | 3.9 | 143 | 156 to 160 °C | CC[C@H](NC(=O)c1c(CN2CCC3(CCCC3)CC2)c(-c2ccccc2)nc2ccccc12)c1ccccc1 [Example 31]
2 | 1.8 | 5.7 | – | CC[C@H](NC(=O)c1c(CN2CCN(C(C)C)CC2)c(-c2ccccc2)nc2ccccc12)c1ccccc1 [Example 20]
3 | 0.9 | 24.1 | – | CC[C@H](NC(=O)c1c(CN2CCCCC2)c(-c2ccccc2)nc2ccccc12)c1ccccc1 [Example 8]
4 | 0.9 | 6.4 | 182 to 183 °C | CC[C@H](NC(=O)c1c(CCCN2C(=O)c3ccccc3C2=O)c(-c2ccccc2)nc2ccccc12)c1ccccc1 [Example 21]
5 | 2.9 | 64.8 | 100 to 105 °C | CC[C@H](NC(=O)c1c(CN2CC[C@@H](O)C2)c(-c2ccccc2)nc2ccccc12)c1ccccc1 [Example 33]
6 | 0.5 | 1.5 | 75 to 80 °C | CC[C@H](NC(=O)c1c(CCCN2CCC(c3ccccc3)CC2)c(-c2ccccc2)nc2ccccc12)c1ccccc1 [Example 25]
7 | 2.8 | 53.5 | 100 to 110 °C (dec.) | CC[C@H](NC(=O)c1c(CCN2CCN(c3ccc(Cl)cc3)CC2)c(-c2ccccc2)nc2ccccc12)c1ccccc1 [Example 27]
8 | – | – | 180 °C (dec.) | CC[C@H](NC(=O)c1c(CCCN2CCN(c3ccccc3)CC2)c(-c2ccccc2)nc2ccccc12)c1ccccc1 (as salt: HCl) [Example 13]
9 | 2.5 | 35.3 | 93 to 96 °C | CC[C@H](NC(=O)c1c(CCN2CCN(c3ccc(C)cc3)CC2)c(-c2ccccc2)nc2ccccc12)c1ccccc1 [Example 29]
10 | – | – | 195 to 198 °C | CC[C@H](NC(=O)c1c(CN2CCN(C)CC2)c(-c2ccccc2)nc2ccccc12)c1ccccc1 (as salt: HCl) [Example 11]
11 | 2.9 | 44.9 | 115 to 117 °C | CC[C@H](NC(=O)c1c(CCN2CCN(c3cccc(C(F)(F)F)c3)CC2)c(-c2ccccc2)nc2ccccc12)c1ccccc1 [Example 22]
12 | 1 | 1.2 | 125 to 130 °C | CC(C)[C@H](NC(=O)c1c(CN2CCN(C(C)C)CC2)c(-c2ccccc2)nc2ccccc12)c1ccccc1 [Example 43]
13 | – | – | 178 to 182 °C | CC[C@H](NC(=O)c1c(CN2CCN(C(C)C)CC2)c(-c2ccccc2)nc2ccccc12)c1ccccc1 (as salt: HCl) [Example 20]
14 | 1.2 | 65.5 | 167 to 170 °C | CC[C@H](NC(=O)c1c(CN(C)CCO)c(-c2ccccc2)nc2ccccc12)c1ccccc1 [Example 6]
15 | 0.9 | 73.2 | 83 °C (dec.) | CC[C@H](NC(=O)c1c(CN2CCC[C@@H]2CO)c(-c2ccccc2)nc2ccccc12)c1ccccc1 [Example 5]
16 | 1.5 | 42.7 | > 95 °C | CC[C@H](NC(=O)c1c(CN2CCC(=O)CC2)c(-c2ccccc2)nc2ccccc12)c1ccccc1 [Example 17, (S)-N-(α-Ethylbenzyl)-3-[(4-oxopiperidin-1-yl)methyl]-2-phenylquinoline-4-carboxamide]
17 | 2.3 | 44.6 | 203 to 207 °C | CC[C@H](NC(=O)c1c(CN2CCC(O)CC2)c(-c2ccccc2)nc2ccccc12)c1ccccc1 [Example 18, (S)-N-(α-Ethylbenzyl)-3-[(4-hydroxypiperidin-1-yl)methyl]-2-phenylquinoline-4-carboxamide]
18 | 0.4 | 1.7 | 85 °C (dec.) | CC[C@H](NC(=O)c1c(CN2CCN(Cc3ccccc3)CC2)c(-c2ccccc2)nc2ccccc12)c1ccccc1 [Example 26, (S)-N-(α-ethylbenzyl)-3-[(4-benzylpiperazin-1-yl)methyl]-2-phenylquinoline-4-carboxamide]
19 | 0.3 | 3.8 | – | CC[C@H](NC(=O)c1c(CCCN2CCN(c3ccccc3)CC2)c(-c2ccccc2)nc2ccccc12)c1ccccc1 [Example 13]
20 | – | – | 94 to 98 °C and 94.5 to 98 °C | CC[C@H](NC(=O)c1c(CN2CCNCC2)c(-c2ccccc2)nc2ccccc12)c1ccccc1 [Example 28, (S)-N-(α-Ethylbenzyl)-3-[(piperazin-1-yl)methyl]-2-phenylquinoline-4-carboxamide]
21 | 1.7 | 12.7 | 75 to 78 °C | CC[C@H](NC(=O)c1c(CN2CCN(CC)CC2)c(-c2ccccc2)nc2ccccc12)c1ccccc1 [Example 36]
22 | – | – | 206 °C (dec.) | CC[C@H](NC(=O)c1c(CCN2CCN(c3ccccc3)CC2)c(-c2ccccc2)nc2ccccc12)c1ccccc1 (as salt: HCl) [Example 12]
23 | 3.3 | 56.7 | 117 to 120 °C | CC(C)[C@H](NC(=O)c1c(CN(C)C)c(-c2ccccc2)nc2ccccc12)c1ccccc1 [Example 41]
24 | 1.9 | 39 | – | CC[C@H](NC(=O)c1c(CCN2CCN(c3ccccc3)CC2)c(-c2ccccc2)nc2ccccc12)c1ccccc1 [Example 12]
25 | 1.5 | 38 | 142 to 145 °C | CC[C@H](NC(=O)c1c(CN2CCC(=O)C2)c(-c2ccccc2)nc2ccccc12)c1ccccc1 [Example 34, (S)-N-(α-ethylbenzyl)-3-[(3-oxo)pyrrolidin-1-ylmethyl]-2-phenylquinoline-4-carboxamide]
26 | 4 | 66.8 | – | CC[C@H](NC(=O)c1c(CN2CCN(C)CC2)c(-c2ccccc2)nc2ccccc12)c1ccccc1 [Example 11]
27 | 0.9 | 3.3 | 100 to 105 °C | CC[C@H](NC(=O)c1c(CCCN2CCN(c3ccc(Cl)cc3)CC2)c(-c2ccccc2)nc2ccccc12)c1ccccc1 [Example 24]
28 | 1.1 | 22.2 | 151 to 153 °C | CC[C@H](NC(=O)c1c(CCCCN2CCN(c3ccccc3)CC2)c(-c2ccccc2)nc2ccccc12)c1ccccc1 [Example 14]
29 | – | – | 140 °C (dec.) | CC[C@H](NC(=O)c1c(CN2CCCCC2)c(-c2ccccc2)nc2ccccc12)c1ccccc1 (as salt: HCl) [Example 8]
30 | 0.8 | 35.6 | – | CC[C@H](NC(=O)c1c(CCN2CCN(C(C)C)CC2)c(-c2ccccc2)nc2ccccc12)c1ccccc1 [Example 39]
